Data from patent US20230192650A1, “NOVEL ACID SECRETION INHIBITOR AND USE THEREOF” (Ildong Pharmaceutical Co., Ltd., priority 2020, published 2023).
Read-outs that look alike come from different tables or passages of the source.

How the values were obtained:
[1] = target: T1, proton pump (H+/K+-ATPase) (Sus scrofa, UniProt P19156); experiment: Inhibitory activity on proton pump (H+/K+-ATPase), malachite green assay; assay type: biochemical; settings: pig gastric vesicles, pH 6.5
T1 construct: Gastric vesicles isolated from pig stomach were prepared according to the document; from tissue; host or cells: pig stomach (gastric vesicles)
Description: (§1) The proton pump (H+/K+-ATPase) inhibitory activity of the prepared compound was measured as follows. Gastric vesicles isolated from pig stomach were prepared according to the document (see Methods Mol Biol. 2016; 1377:19-27). The protein contents of the gastric vesicles were quantified with a Bicinchoninic Acid (BCA) kit (Sigma Aldrich, BCA1). To each well of a 96-well plate, 70 μl of 50 mM Tris-HEPES buffer (pH 6.5) containing 125 ng of vesicles, DMSO or a substance for each concentration (final DMSO concentration of 1%), 5 mM MgCl2, and 10 mM KCl was added and pre-incubated at 37° C. for 30 minutes. Then, 10 μl of 2 mM ATP was added to each well, followed by enzymatic reaction at 37° C. for 40 minutes. The reaction was stopped by adding 20 μl of malachite green reagent (Sigma Aldrich, MAK307) and the resulting mixture was allowed to stand at room temperature for 30 minutes. By measuring the absorbance at 620 nm using a Microplate Reader (Biotek, Synergy H4), an amount of inorganic phosphorus released from ATP degradation was measured and the enzyme activity was measured. The absorbance of the enzyme-reacted sample without adding KCl was measured, and the measurement value was subtracted from all the above measurements. Assuming that the group treated with 1% DMSO (DMSO control group) was 100% H^+/K^+-ATPase enzyme activity, and that the group without KCl (KCl control group) was 0% H^+/K^+-ATPase enzyme activity, % inhibition was calculated as in the following Equation 1:
% inhibition=[1−(ODtreatment group−ODKCl control group)/(ODDMSO control group−ODKCl control group))]*100. [Equation 1]
IC50 was obtained by nonlinear regression analysis of GraphPad Prism7 program using % inhibition values for each concentration, and results thereof are shown in Table 2 below.

[2] = target: T1, proton pump (H+/K+-ATPase); experiment: Proton pump (H+/K+-ATPase) inhibitory activity depending on pH; assay type: biochemical, pig
Description: as §1, with “1: […]” for “1:”
In order to measure the change in proton pump (H+/K+-ATPase) inhibitory activity depending on the pH of the prepared compound, an experiment was performed in the same manner as in Test Example 1 under three conditions of pH 6.5, pH 7.0, and pH 7.5.

[3] = target: T1, proton pump (H+/K+-ATPase); experiment: Reversibility of proton pump inhibition by jump dilution method; assay type: biochemical, pig; settings: 0.2 μM compound
Description: In addition, in order to confirm the reversibility of the inhibition ability on the proton pump (H^+/K^+-ATPase) of the prepared compound, an experiment was performed by the jump dilution method. 6.25 μg of gastric vesicles isolated from pig stomach and 0.2 μM of each compound were pre-incubated for 120 minutes, and then the enzyme activity before dilution and the enzyme activity after 50-fold dilution were compared for each reaction time, and the reversibility was evaluated. In both Example 1 and Example 3, the inhibition ability of 50% or more was confirmed after 20 minutes of the reaction. On the other hand, when the reaction was performed for 60 minutes after the 50-fold dilution, in both Examples 1 and 3, the enzyme activity was recovered to 90% or more, and reversible results were confirmed.

human SSTR4 = human SSTR4 (Homo sapiens, UniProt P31391); experiment: SSTR4 agonist effect (cell-based cAMP functional assay, HTRF); settings: CHO cells stably expressing human SSTR4, 37° C. 30 minutes, vs sst-14 10 nM
Description: The agonism effect on SSTR4 was confirmed by cell-based cAMP functional assay. CHO cells in which human SSTR4 was stably expressed were treated with test substances for each concentration and reacted at 37° C. for 30 minutes, and an amount of the produced cAMP was measured by the HTRF detection method. The % response compared to the reference control agonist (sst-14, 10 nM) was calculated, and the EC50 was calculated through the concentration-response curve.

[4] = tested on: basal gastric acid secretion; experiment: Inhibition of basal gastric acid secretion in pylorus-ligated rat (Shay's rat model); assay type: in vivo; settings: SD rats, 10 mg/kg oral 1 h before pylorus ligation, 5 hours after ligation
Description: The inhibitory efficacy of the prepared compound on basal gastric acid secretion was measured by employing the Shay's rat model [Shay H, et al., Gastroenterology, 1945, 5, 43˜61].
Male Sprague Dawley (SD) rats were divided into 8 rats per group, and fasted with only water supply for 24 hours. Then, one hour before pylorus ligation, the control group was orally administered with 0.5% methylcellulose solution, and the other groups were orally administered with the Example compound at a dose of 10 mg/10 mL/kg suspended in 0.5% methylcellulose solution.
After 5 hours of ligation, the rats were sacrificed under Zoletil and Xylazine anesthesia, and the gastric contents were enucleated by incision of the abdominal cavity. The obtained contents were centrifuged at 3,000 rpm for 10 minutes to separate only the supernatant, and gastric juice was collected. 1 mL of the collected gastric juice was taken into a beaker and the pH was measured using an electrode pH meter. To 1 mL of gastric juice, 0.03 mL each of 0.5% dimethylaminoazobenzene alcohol solution and 1% phenolphthalein alcohol solution was added to make red color, and then 0.1N NaOH solution was added, wherein the volume until the rose tint appeared was determined as the total acidity, and the total acid output was obtained by multiplying the acidity of gastric juice by the amount of gastric juice. The % inhibitory activity of the Example compound was calculated according to the following Equation 2, and results thereof are shown in Table 6 below.
% inhibitory activity of Example compound=[(total gastric acid secretion in Control group−total gastric acid secretion in group treated with Example compound)/total gastric acid secretion in Control group]×100 [Equation 2]

[5] = tested on: indomethacin-induced gastric damage; experiment: Gastric damage inhibitory efficacy in rat of indomethacin-induced gastric damage; assay type: in vivo; settings: SD rats, 10 mg/kg oral 1 hour before indomethacin, 5 hours
Description: The experiment was performed as follows to evaluate the gastric ulcer inhibitory efficacy of the Example compound in rat models of gastric damage induced by indomethacin, a drug in the NSAID classes.
Among fasted male Sprague Dawley rats, the control group was orally administered with 0.5% methylcellulose solution, and the other groups were orally administered with the Example compound at a dose of 10 mg/10 mL/kg suspended in 0.5% methylcellulose solution.
In 1 hour after oral administration of the Example compound, indomethacin was orally administered, and after 5 hours, the test animals were sacrificed and the stomach was enucleated. After washing the enucleated surface of the stomach, the greater curvature of the stomach was incised. The incised stomach was spread out and fixed. Then, the ratio of the gastric damaged area was obtained by the total gastric area and the damaged area on the gastric mucosa surface using ImageJ software (NIH, Bethesda), and the % inhibitory activity of the Example compound was calculated according to the following Equation 3.
% inhibitory activity of Example compound=[(ratio of gastric damaged area in control group−ratio of gastric damaged area in group treated with Example compound)/(ratio of gastric damaged area in control group)]×100 [Equation 3]

[6] = Pharmacokinetic test in rats; assay type: in vivo; settings: blood, rat; for bioavailability: oral 10 mg/kg vs intravenous 5 mg/kg, read-out: F (%) bioavailability; for AUC(0-inf): single oral dose 10 mg/kg
Description: (§2) The Example compound was dissolved in PBS containing 5% DMSO and 20% hydroxypropyl (HP) beta cyclodextrin, and administered intravenously to rats at a dose of 5 mg/kg, and the Example compound was suspended in distilled water containing 0.5% methylcellulose, and orally administered to rats at a dose of 10 mg/kg. The Example compound was dissolved in PBS containing 5% DMSO and 20% hydroxypropyl (HP) beta cyclodextrin, and administered intravenously to beagle dogs at a dose of 5 mg/kg, and the Example compound was suspended in distilled water containing 0.5% methylcellulose, and orally administered to beagle dogs at a dose of 10 mg/kg. Blood samples were collected at scheduled time points after the single intravenous and oral administration of the Example compound to normal rats and beagle dogs. Acetonitrile containing an internal standard material was added to the collected blood sample for protein precipitation. The sample extracted through protein precipitation was centrifuged, and then the supernatant was injected into LC-MS/MS to be subjected to quantitative analysis of the blood concentration of the Example compound. The AUC for each administration route was calculated based on the blood concentration-time profile obtained as a result above, and based on this, the bioavailability (F) upon oral administration was calculated.

[7] = Pharmacokinetic test in beagle dogs; assay type: in vivo; settings: blood, beagle dog; for bioavailability: oral 10 mg/kg vs intravenous 5 mg/kg, read-out: F (%) bioavailability; for AUC(0-inf): single oral dose 10 mg/kg
Description: as §2

[8] = Intragastric distribution test in rats; assay type: in vivo; settings: rat, oral 4 mg/kg, 1, 6, 12 and 24 hours
Description: After oral administration of the Example compound in normal rats, the intragastric distribution by time was measured as follows. The prepared compound was dissolved in distilled water containing 0.5% methylcellulose to 0.2 mg/mL, and then orally administered at a dosage of 4 mg/kg. Rats were sacrificed at 1 hour, 6 hours, 12 hours, and 24 hours after administration. Then, blood was exsanguinated through the heart and perfused with physiological saline, the gastric tissue was enucleated, weighed, and stored at −80° C. until the point of analysis. PBS buffer was added so that the ratio of gastric tissue weight to PBS buffer was 1:4, and the compound in gastric tissue was extracted using a homogenizer. The supernatant of the extract was taken and was subjected to protein precipitation using acetonitrile, and then an amount of the Example compound was measured using LC-MS/MS.

[9] = after 20 minutes of the reaction, read-out: inhibition ability
[10] = reaction time 20 min, after 50-fold dilution, read-out: % Inhibition
[11] = reaction time 20 min, before dilution, read-out: % Inhibition
[12] = reaction time 60 min, after 50-fold dilution, read-out: % Inhibition
[13] = reaction time 60 min, before dilution, read-out: % Inhibition
[14] = reaction time 120 min, after 50-fold dilution, read-out: % Inhibition
[15] = reaction time 120 min, before dilution, read-out: % Inhibition

T1 sequence (P19156 2-1034 limits assumed): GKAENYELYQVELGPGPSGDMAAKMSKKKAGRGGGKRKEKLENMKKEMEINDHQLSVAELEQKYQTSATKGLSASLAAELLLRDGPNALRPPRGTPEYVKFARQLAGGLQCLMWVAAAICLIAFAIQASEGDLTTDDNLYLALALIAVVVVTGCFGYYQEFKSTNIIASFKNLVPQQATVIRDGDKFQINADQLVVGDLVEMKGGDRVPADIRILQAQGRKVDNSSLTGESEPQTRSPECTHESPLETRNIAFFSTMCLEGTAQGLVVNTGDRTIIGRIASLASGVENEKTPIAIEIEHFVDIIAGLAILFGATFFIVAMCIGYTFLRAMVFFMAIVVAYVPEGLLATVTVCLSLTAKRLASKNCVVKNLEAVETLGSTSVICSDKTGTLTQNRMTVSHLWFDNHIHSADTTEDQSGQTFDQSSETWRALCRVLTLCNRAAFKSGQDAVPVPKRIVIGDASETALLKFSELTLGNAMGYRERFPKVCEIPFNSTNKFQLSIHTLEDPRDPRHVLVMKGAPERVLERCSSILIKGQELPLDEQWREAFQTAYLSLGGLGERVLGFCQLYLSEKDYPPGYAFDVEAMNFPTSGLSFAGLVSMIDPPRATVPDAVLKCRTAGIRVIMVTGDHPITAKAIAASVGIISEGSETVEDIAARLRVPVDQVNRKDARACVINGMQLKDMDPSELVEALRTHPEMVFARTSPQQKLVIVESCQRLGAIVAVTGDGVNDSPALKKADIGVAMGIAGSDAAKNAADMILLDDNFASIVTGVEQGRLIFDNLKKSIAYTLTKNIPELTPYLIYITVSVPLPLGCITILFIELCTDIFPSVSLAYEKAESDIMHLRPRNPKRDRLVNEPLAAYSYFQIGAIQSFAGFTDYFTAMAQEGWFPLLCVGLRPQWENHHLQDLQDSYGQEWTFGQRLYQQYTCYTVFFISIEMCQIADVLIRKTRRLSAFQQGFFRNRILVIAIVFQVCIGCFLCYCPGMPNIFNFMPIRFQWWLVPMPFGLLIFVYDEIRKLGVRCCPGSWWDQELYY
T1 sequence (P18434 whole entry partner): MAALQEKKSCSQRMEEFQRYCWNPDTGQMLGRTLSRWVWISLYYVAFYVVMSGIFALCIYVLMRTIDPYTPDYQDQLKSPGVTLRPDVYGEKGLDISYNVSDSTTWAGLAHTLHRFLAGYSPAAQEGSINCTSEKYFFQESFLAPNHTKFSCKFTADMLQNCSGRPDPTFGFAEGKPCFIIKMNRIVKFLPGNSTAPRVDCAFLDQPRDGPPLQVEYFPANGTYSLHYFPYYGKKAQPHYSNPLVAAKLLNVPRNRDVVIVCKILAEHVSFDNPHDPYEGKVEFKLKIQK
Chain of human SSTR4 (P31391 whole entry): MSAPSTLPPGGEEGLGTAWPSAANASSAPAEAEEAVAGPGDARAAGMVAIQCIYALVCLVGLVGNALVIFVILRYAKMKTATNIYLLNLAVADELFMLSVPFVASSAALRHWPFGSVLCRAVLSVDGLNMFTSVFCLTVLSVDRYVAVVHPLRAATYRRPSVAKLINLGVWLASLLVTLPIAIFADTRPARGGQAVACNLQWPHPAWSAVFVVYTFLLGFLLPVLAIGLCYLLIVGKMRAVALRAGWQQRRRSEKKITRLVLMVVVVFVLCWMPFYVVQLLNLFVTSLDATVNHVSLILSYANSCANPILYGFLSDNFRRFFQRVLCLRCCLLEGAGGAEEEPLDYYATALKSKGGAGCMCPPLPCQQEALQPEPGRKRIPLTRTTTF

SMILES | IC50 [1] [nM] | IC50 ([2]; pH 6.5) [nM] | IC50 ([2]; pH 7.0) [nM] | IC50 ([2]; pH 7.5) [nM] | inhibition at 0.2 µM [3, 9] [%] | inhibition at 0.2 µM [3, 10] [%] | inhibition at 0.2 µM [3, 11] [%] | inhibition at 0.2 µM [3, 12] [%] | inhibition at 0.2 µM [3, 13] [%] | inhibition at 0.2 µM [3, 14] [%] | inhibition at 0.2 µM [3, 15] [%] | EC50 (human SSTR4) [nM] | Inhibitory Activity (%) on total gastric acid secretion [4] | pH of gastric juice [4] | Inhibitory Activity (%) on ratio of gastric damaged area [5] | bioavailability [6] [%] | AUC(0-inf) [6] [ng·h/mL] | bioavailability [7] [%] | AUC(0-inf) [7] [ng·h/mL] | other results
CNCc1cn(S(=O)(=O)c2ccc(C)nc2)c(-c2ccc(F)cc2F)c1OC [Example 3, 1-(5-(2,4-Difluorophenyl)-4-methoxy-1-((6-methylpyridin-3-yl)sulfonyl)-1H-pyrrol-3-yl)-N-methylmethanamine] | ≤ 300 | ≤ 100 | 100 to 1000 | 100 to 1000 | ≥ 50 | 20 to 50 | ≥ 50 | < 20 | ≥ 50 | < 20 | ≥ 50 | 3900 | +++ (90% or more: +++) | 8.08 ± 0.24 | +++ (97% or more: +++) | 27.3 | 275 | 83.8 | 14500 | inhibition ability depending on pH ([2]; pH 6.5, pH 7.0, pH 7.5 compared): higher inhibition ability in a weakly acidic condition compared to a neutral condition
CNCc1cn(S(=O)(=O)c2ccc(C)nc2)c(-c2ccccc2F)c1OC [Example 4, 1-(5-(2-Fluorophenyl)-4-methoxy-1-((6-methylpyridin-3-yl)sulfonyl)-1H-pyrrol-3-yl)-N-methylmethanamine] | ≤ 300 | – | – | – | – | – | – | – | – | – | – | – | – | – | – | – | – | – | – | –
CNCc1cn(S(=O)(=O)c2ccc(OC)nc2)c(-c2ccc(F)cc2F)c1OC [Example 2, 1-(5-(2,4-Difluorophenyl)-4-methoxy-1-((6-methoxypyridin-3-yl)sulfonyl)-1H-pyrrol-3-yl)-N-methylmethanamine] | ≤ 300 | – | – | – | – | – | – | – | – | – | – | – | +++ (90% or more: +++) | 8.04 ± 0.16 | – | – | – | – | – | –
CNCc1cn(S(=O)(=O)c2ccc(OC)nc2)c(-c2ccccc2F)c1OC [Example 1, 1-(5-(2-Fluorophenyl)-4-methoxy-1-((6-methoxypyridin-3-yl)sulfonyl)-1H-pyrrol-3-yl)-N-methylmethanamine] | ≤ 300 | ≤ 100 | ≤ 100 | 100 to 1000 | ≥ 50 | 20 to 50 | ≥ 50 | < 20 | ≥ 50 | < 20 | ≥ 50 | 780 | +++ (90% or more: +++) | 8.25 ± 0.16 | +++ (97% or more: +++) | 22 | 253 | 71.7 | 10200 | concentration in the stomach versus in vitro H+/K+ ATPase IC50 [8]: exceeded ICH of the in vitro H^+/K^+ ATPase inhibition assay at all time points
